Reference: ChEMBL document CHEMBL3399965, “Application of cultured human mast cells (CHMC) for the design and structure-activity relationship of IgE-mediated mast cell activation inhibitors” (Bioorg Med Chem Lett, 2015)
Active and inactive are the calls of the source. The calls are words filed in the database; no cut-off is given here.

What was measured:
[1] = target: T1, Tyrosine-protein kinase SYK (Homo sapiens, UniProt P43405); assay: Inhibition of SYK in human mast cell cultures assessed as reduction in IgE-induced FCepsilonR1 mediated degranulation by tryptase release assay
[2] = target: T1, Tyrosine-protein kinase SYK; assay: Inhibition of SYK in human mast cell cultures assessed as reduction in ionomycin-induced calcium mobilization mediated degranulation by tryptase release assay

EC50 [1] [µM] | inhibition [2] | inhibition [1] | EC50 [2] [µM] | Compound
0.4 | inactive |  |  | CNC(=O)COc1cccc(Nc2ncc(F)c(Nc3ccc(OC(F)(F)F)cc3)n2)c1
2.2 | inactive |  |  | CC(C)Oc1ccc(Nc2ncc(F)c(Nc3ccc(OC(C)C)cc3)n2)cc1
 | inactive | inactive |  | CCOc1ccc(Nc2ncc(C)c(Nc3ccc(OCC)cc3)n2)cc1
 | inactive | inactive |  | CCOc1ccc(Nc2cc(Cl)nc(Nc3ccc(OCC)cc3)n2)cc1
0.38 |  |  | 1.7 | COC(=O)COc1ccc(Nc2ncc(F)c(Nc3ccc(OCC(=O)OC)cc3)n2)cc1
5.08 | inactive |  |  | Fc1cnc(Nc2cccc(OC(F)(F)F)c2)nc1Nc1cccc(OC(F)(F)F)c1
0.93 | inactive |  |  | OCCOc1cccc(Nc2ncc(F)c(Nc3cccc(OCCO)c3)n2)c1
0.21 | inactive |  |  | CNC(=O)COc1cccc(Nc2ncc(F)c(Nc3ccc(C(F)(F)F)cc3)n2)c1
0.9 | inactive |  |  | Cc1cnc(Nc2cccc(O)c2)nc1Nc1cccc(O)c1
1.29 | inactive |  |  | CNC(=O)COc1cccc(Nc2ncc(F)c(Nc3ccc(N4CCOCC4)cc3)n2)c1
0.43 |  |  | 2.48 | COC(=O)COc1ccc(Nc2ncc(F)c(Nc3ccc(OCC(N)=O)cc3)n2)cc1
0.67 | inactive |  |  | OCCOc1cccc(Nc2nc(Nc3cccc(O)c3)ncc2F)c1
0.5 | inactive |  |  | Oc1cccc(Nc2ccnc(Nc3cccc(O)c3)n2)c1
 | inactive | inactive |  | NC(=O)COc1ccc(Nc2ncc(F)c(Nc3ccc(OCC(N)=O)cc3)n2)cc1
0.43 |  |  | 10 | CNC(=O)COc1cccc(Nc2ncc(F)c(Nc3ccc(C(C)(C)C)cc3)n2)c1
4.15 | inactive |  |  | COCCOc1cccc(Nc2ncc(F)c(Nc3cccc(OCCOC)c3)n2)c1
0.23 | inactive |  |  | Oc1cccc(Nc2ncc(Br)c(Nc3cccc(O)c3)n2)c1
3.1 | inactive |  |  | CCOc1cccc(Nc2ncc(F)c(Nc3cccc(OCC)c3)n2)c1
2.9 | inactive |  |  | Oc1cccc(Nc2ncc(-c3ccccc3)c(Nc3cccc(O)c3)n2)c1
 | inactive | inactive |  | Fc1cnc(Nc2ccc(OCc3nnn[nH]3)cc2)nc1Nc1ccc(OCc2nnn[nH]2)cc1
2.8 | inactive |  |  | OCc1cccc(Nc2ncc(F)c(Nc3cccc(CO)c3)n2)c1
0.33 | inactive |  |  | CCOC(=O)CNc1cccc(Nc2ncc(F)c(Nc3cccc(O)c3)n2)c1
5.8 | inactive |  |  | Oc1cccc(Nc2cc(-c3ccccc3)nc(Nc3cccc(O)c3)n2)c1
0.37 | inactive |  |  | N#CCOc1ccc(Nc2ncc(F)c(Nc3ccc(OCC#N)cc3)n2)cc1

EC50 [1] [µM] | inhibition [2] | inhibition [1] | EC50 [2] [µM] | Compound
3.38 | inactive |  |  | CCOc1ccc(Nc2ccnc(Nc3ccc(OCC)cc3)n2)cc1
0.94 |  |  | 10 | COC(=O)COc1ccc(Nc2nc(Nc3ccc(OCC(N)=O)cc3)ncc2F)cc1
4.14 | inactive |  |  | Fc1cnc(Nc2ccc(N3CCOCC3)cc2)nc1Nc1ccc(N2CCOCC2)cc1
3.4 | inactive |  |  | Oc1ccc(Nc2ncc(F)c(Nc3ccc(O)cc3)n2)cc1
1.1 | inactive |  |  | CCOc1ccc(Nc2nc(Nc3cccc(OCC(=O)NC)c3)ncc2F)cc1
 | inactive |  |  | CNC(=O)CNc1cccc(Nc2ncc(F)c(Nc3cccc(O)c3)n2)c1
0.27 | inactive |  |  | Oc1cccc(Nc2ncc(C(F)(F)F)c(Nc3cccc(O)c3)n2)c1
0.28 | inactive |  |  | CC(C)(CO)c1ccc(Nc2nc(Nc3cccc(OCCO)c3)ncc2F)cc1
 | inactive | inactive |  | Fc1cnc(Nc2ccc(C(F)(F)F)cc2)nc1Nc1ccc(C(F)(F)F)cc1
4.25 | inactive |  |  | Nc1ccc(Nc2ncc(F)c(Nc3ccc(N)cc3)n2)cc1
0.53 |  |  | 10 | NC(=O)COc1ccc(Nc2ncc(F)c(Nc3cccc(O)c3)n2)cc1
 | inactive |  |  | CCOc1ccc(Nc2ncc(F)c(Nc3ccc(OCC)cc3)n2)cc1
 | inactive | inactive |  | O=C(O)COc1ccc(Nc2ncc(F)c(Nc3ccc(OCC(=O)O)cc3)n2)cc1
1.73 | inactive |  |  | COc1cccc(Nc2ncc(F)c(Nc3cccc(OC)c3)n2)c1
0.95 | inactive |  |  | N#Cc1cccc(Nc2ncc(F)c(Nc3cccc(C#N)c3)n2)c1
0.44 | inactive |  |  | N#Cc1cnc(Nc2cccc(O)c2)nc1Nc1cccc(O)c1
 | inactive |  |  | Oc1cccc(Nc2ncc(F)c(Nc3cccc(O)c3)n2)c1
0.76 | inactive |  |  | Cn1nnnc1COc1ccc(Nc2ncc(F)c(Nc3ccc(OCc4nnnn4C)cc3)n2)cc1
5.81 | inactive |  |  | Fc1cnc(Nc2cccc(Cl)c2)nc1Nc1cccc(Cl)c1
9.83 | inactive |  |  | N#Cc1ccc(Nc2ncc(F)c(Nc3ccc(C#N)cc3)n2)cc1
1.43 | inactive |  |  | COc1ccc(Nc2ncc(F)c(Nc3ccc(OC)cc3)n2)cc1
 |  |  | 10 | N#CCOc1ccc(Nc2ncc(F)c(Nc3cccc(O)c3)n2)cc1
1.55 |  |  | 10 | NC(=O)COc1ccc(Nc2nc(Nc3cccc(O)c3)ncc2F)cc1
